Measurements from patent US10562909B2, “Fused quadracyclic compounds, compositions and uses thereof” (Tabomedex Biosciences, LLC, priority 2016, dated 2020).

What follows are molecules tested against MAPKAPK2 (Homo sapiens, UniProt P49137) (assay: MK2 Enzymatic Assay). Conditions: 0.5 nM MAPKAPK2, 3 μM ATP, 2 μM Ser/Thr4 peptide, 23° C., values given as concentration bins.
Assay type: biochemical
Procedure: Briefly, 5 μL of 2× (4 μM) 100% phosphorylation peptide was delivered into the control wells of a 384-well assay plate. 5 μL of 2× (1 nM) MAPKAPK2 and 2× peptide (4 μM) mixture in assay buffer was dispensed to remaining columns of assay plate using Eppendorf electronic multiple channel pipette. The assay plate was incubated for 20 minutes. 5 μL of 2× ATP (6 μM) in assay buffer was dispensed to each well and then the assay plate was lightly centrifuged. The assay plate was incubated for an additional 120 minutes.
5 μL of development reagent A was dispensed to all wells using Eppendorf electronic multiple channel pipette. After incubating the development reaction for 120 min, plates were read on a Perkin Elmer Envision instrument.
Percent phosphorylation was calculated using the following formula:
[formula] Where • C100%=Average Coumarin emission signal of the 100% Phos. Control • C0%=Average Coumarin emission signal of the 0% Phos. Control • F100%=Average Fluorescein emission signal of the 100% Phos. Control • F0%=Average Flurescein emission signal of the 0% Phos. Control

Chain of MAPKAPK2 (P49137 whole entry, species assumed): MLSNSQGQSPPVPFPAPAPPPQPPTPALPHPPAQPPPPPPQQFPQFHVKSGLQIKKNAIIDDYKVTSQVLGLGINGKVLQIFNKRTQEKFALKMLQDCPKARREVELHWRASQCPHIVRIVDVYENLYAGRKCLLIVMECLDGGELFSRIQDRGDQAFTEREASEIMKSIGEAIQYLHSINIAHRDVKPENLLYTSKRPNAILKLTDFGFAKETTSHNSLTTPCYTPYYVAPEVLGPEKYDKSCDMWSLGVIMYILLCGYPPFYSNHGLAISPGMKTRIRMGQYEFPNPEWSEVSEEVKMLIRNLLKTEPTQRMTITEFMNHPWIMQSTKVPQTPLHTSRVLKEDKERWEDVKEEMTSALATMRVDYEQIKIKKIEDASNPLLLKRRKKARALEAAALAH

SMILES	IC50 [nM]
CN(C)[C@@H]1CN(c2ccc3c(c2)Cn2cc(-c4ccc(C#N)cc4)cc2-c2nccn2-3)C[C@H]1O [Compound 130, 4-(7-((3R,4R)-3-(dimethylamino)-4-hydroxypyrrolidin-1-yl)-9H-benzo[e]imidazo[2,1-c]pyrrolo[1,2-a][1,4]diazepin-12-yl)benzonitrile]	< 50
CNCC1CN(c2ccc3c(n2)Cn2cc(-c4ccc(C#N)cc4)cc2-c2nccn2-3)C1 [Compound 295, 4-(7-(3-((methylamino)methyl)azetidin-1-yl)-9H-imidazo[2,1-c]pyrido[3,2-e]pyrrolo[1,2-a] [1,4]diazepin-12-yl)benzonitrile]	< 50
N#Cc1ccc(-c2cc3n(c2)Cc2cc(N4CC[C@@H](CN5CCC(O)CC5)C4)ccc2-n2cnnc2-3)cc1 [Compound 110, (S)-4-(7-(3-((4-hydroxypiperidin-1-yl)methyl)pyrrolidin-1-yl)-9H-benzo[e]pyrrolo[1,2-a] [1,2,4]triazolo[3,4-c][1,4]diazepin-12-yl)benzonitrile]	< 50
CN(C)C[C@H]1CN(c2ccc3c(c2)Cn2cc(-c4ccc(F)cc4)cc2-c2ncnn2-3)C[C@H]1F [Compound 498, 1-((3S,4S)-4-fluoro-1-(12-(4-fluorophenyl)-9H-benzo[e]pyrrolo[1,2-a][1,2,4]triazolo[5,1-c][1,4]diazepin-7-yl)pyrrolidin-3-yl)-N,N-dimethylmethanamine]	< 50
O=C(O)C1CCN(CC2CCN(c3ccc4c(c3)Cn3cc(-c5ccc(F)cc5)cc3-c3nccn3-4)C2)CC1 (stereo not shown) [Compound 480, 1-((1-(12-(4-fluorophenyl)-9H-benzo[e]imidazo[2,1-c]pyrrolo[1,2-a][1,4]diazepin-7-yl)pyrrolidin-3-yl)methyl)piperidine-4-carboxylic acid]	50 to 100
CN(C)C[C@@H]1CCN(c2cc3c(cn2)-n2cnnc2-c2cc(-c4ccc(F)cc4)cn2C3)C1 [Compound 443, (S)-1-(1-(12-(4-fluorophenyl)-9H-pyrido[3,4-e]pyrrolo[1,2-a][1,2,4]triazolo[3,4-c][1,4]diazepin-7-yl)pyrrolidin-3-yl)-N,N-dimethylmethanamine]	100 to 200
Fc1ccc(-c2cc3n(c2)Cc2cc(N4CC5(CCCNC5)C4)ccc2-n2ccnc2-3)cc1 [Compound 377, 12-(4-fluorophenyl)-7-(2,6-diazaspiro[3.5]nonan-2-yl)-9H-benzo[e]imidazo[2,1-c]pyrrolo[1,2-a][1,4]diazepine]	< 50
CN(C)C[C@@H]1CN(c2ccc3c(c2)Cn2cc(-c4ccc(C#N)cc4)cc2-c2nccn2-3)C[C@@H]1O [Compound 129, 4-(7-((3R,4R)-3-((dimethylamino)methyl)-4-hydroxypyrrolidin-1-yl)-9H-benzo[e]imidazo[2,1-c]pyrrolo[1,2-a][1,4]diazepin-12-yl)benzonitrile]	< 50
CN(C)C[C@H]1CN(c2ccc3c(c2)Cn2cc(-c4ccc(C#N)cc4)cc2-c2nncn2-3)C[C@H]1O [Compound 81, 4-(7-((3S,4S)-3-((dimethylamino)methyl)-4-hydroxypyrrolidin-1-yl)-9H-benzo[e]pyrrolo[1,2-a][1,2,4]triazolo[3,4-c][1,4]diazepin-12-yl)benzonitrile]	< 50
c1ccc(-c2cc3n(c2)Cc2cc(N4CCC5(CNC5)C4)ccc2-n2ccnc2-3)cc1 [Compound 462, 12-phenyl-7-(2,6-diazaspiro[3.4]octan-6-yl)-9H-benzo[e]imidazo[2,1-c]pyrrolo[1,2-a][1,4]diazepine]	< 50
CN(C)C[C@@H]1CN(c2ccc3c(n2)Cn2cc(-c4ccc(C#N)cc4)cc2-c2nccn2-3)C[C@@H]1O [Compound 299, 4-(7-((3R,4R)-3-((dimethylamino)methyl)-4-hydroxypyrrolidin-1-yl)-9H-imidazo[2,1-c]pyrido[3,2-e]pyrrolo[1,2-a][1,4]diazepin-12-yl)benzonitrile]	< 50
CNCC1CN(c2cc3c(cn2)-n2cnnc2-c2cc(-c4ccc(C#N)cc4)cn2C3)C1 [Compound 315, 4-(7-(3-((methylamino)methyl)azetidin-1-yl)-9H-pyrido[3,4-e]pyrrolo[1,2-a][1,2,4]triazolo[3,4-c][1,4]diazepin-12-yl)benzonitrile]	100 to 200
CN(C)C[C@H]1CN(c2ccc3c(c2)Cn2cc(-c4ccc(C#N)cc4)cc2-c2nncn2-3)C[C@@H]1O (racemic) [Compound 74, 4-(7-(trans-3-((dimethylamino)methyl)-4-hydroxypyrrolidin-1-yl)-9H-benzo[e]pyrrolo[1,2-a][1,2,4]triazolo[3,4-c][1,4]diazepin-12-yl)benzonitrile]	< 50
CN1CC2(CCN(c3cc4c(cn3)-n3ccnc3-c3cc(-c5ccc(C#N)cc5)cn3C4)C2)C1 [Compound 322, 4-(7-(2-methyl-2,6-diazaspiro[3.4]octan-6-yl)-9H-imidazo[2,1-c]pyrido[3,4-e]pyrrolo[1,2-a] [1,4]diazepin-12-yl)benzonitrile]	100 to 200
CN(C)[C@@H]1CN(c2ccc3c(c2)Cn2cc(-c4ccc(F)cc4)cc2-c2nccn2-3)C[C@H]1O [Compound 351, (3R,4R)-4-(dimethylamino)-1-(12-(4-fluorophenyl)-9H-benzo[e]imidazo[2,1-c]pyrrolo[1,2-a] [1,4]diazepin-7-yl)pyrrolidin-3-ol]	< 50
CN1CC2(CCN(c3ccc4c(c3)Cn3cc(-c5ccc(C#N)cc5)cc3-c3nnnn3-4)C2)C1 [Compound 240, 4-(7-(2-methyl-2,6-diazaspiro[3.4]octan-6-yl)-9H-benzo[e]pyrrolo[1,2-a]tetrazolo[5,1-c] [1,4]diazepin-12-yl)benzonitrile]	< 50
CN(C)[C@H]1CCN(c2ccc3c(c2)Cn2cc(-c4ccc(F)cc4)cc2-c2nnnn2-3)C1 [Compound 407, (S)-1-(12-(4-fluorophenyl)-9H-benzo[e]pyrrolo[1,2-a]tetrazolo[5,1-c][1,4]diazepin-7-yl)-N,N-dimethylpyrrolidin-3-amine]	50 to 100
CN(C)C[C@@H]1CCN(c2ccc3c(c2)Cn2c(cc(-c4ccc(C#N)cc4)c2Cl)-c2nncn2-3)C1 [Compound 170, (S)-4-(11-chloro-7-(3-((dimethylamino)methyl)pyrrolidin-1-yl)-9H-benzo[e]pyrrolo[1,2-a] [1,2,4]triazolo[3,4-c][1,4]diazepin-12-yl)benzonitrile]	50 to 100
CNC[C@H]1CN(c2ccc3c(c2)Cn2cc(-c4ccc(C#N)cc4)cc2-c2nncn2-3)C[C@H]1O (racemic) [Compound 73, 4-(7-(cis-3-hydroxy-4-((methylamino)methyl)pyrrolidin-1-yl)-9H-benzo[e]pyrrolo[1,2-a] [1,2,4]triazolo[3,4-c][1,4]diazepin-12-yl)benzonitrile]	< 50
CN(C)CC[C@H]1CN(c2ccc3c(c2)Cn2cc(-c4ccc(F)cc4)cc2-c2nccn2-3)C[C@@H]1O (relative stereo) [Compound 494, Trans-4-(2-(dimethylamino)ethyl)-1-(12-(4-fluorophenyl)-9H-benzo[e]imidazo[2,1-c]pyrrolo[1,2-a][1,4]diazepin-7-yl)pyrrolidin-3-ol]	< 50
Fc1ccc(-c2cc3n(c2)Cc2cc(N4CCC5(CNC5)C4)ccc2-n2ccnc2-3)cc1 [Compound 376, 12-(4-fluorophenyl)-7-(2,6-diazaspiro[3.4]octan-6-yl)-9H-benzo[e]imidazo[2,1-c]pyrrolo[1,2-a][1,4]diazepine]	< 50
CN(C)[C@H]1CN(c2ccc3c(c2)Cn2cc(-c4ccc(F)cc4)cc2-c2ncnn2-3)C[C@@H]1O [Compound 418, (3S,4S)-4-(dimethylamino)-1-(12-(4-fluorophenyl)-9H-benzo[e]pyrrolo[1,2-a][1,2,4]triazolo[5,1-c][1,4]diazepin-7-yl)pyrrolidin-3-ol]	100 to 200
OCCN1CC2(CCN(c3ccc4c(c3)Cn3cc(-c5ccc(F)cc5)cc3-c3nccn3-4)C2)C1 [Compound 369, 2-(6-(12-(4-fluorophenyl)-9H-benzo[e]imidazo[2,1-c]pyrrolo[1,2-a][1,4]diazepin-7-yl)-2,6-diazaspiro[3.4]octan-2-yl)ethanol]	< 50
CNCC1CN(c2ccc3c(c2)Cn2cc(-c4ccc(F)cc4)cc2-c2nccn2-3)C1 [Compound 341, 1-(1-(12-(4-fluorophenyl)-9H-benzo[e]imidazo[2,1-c]pyrrolo[1,2-a][1,4]diazepin-7-yl)azetidin-3-yl)-N-methylmethanamine]	< 50
NC[C@@H]1CN(c2ccc3c(c2)Cn2cc(-c4ccc(F)cc4)cc2-c2nccn2-3)C[C@H]1O [Compound 366, (3S,4R)-4-(aminomethyl)-1-(12-(4-fluorophenyl)-9H-benzo[e]imidazo[2,1-c]pyrrolo[1,2-a] [1,4]diazepin-7-yl)pyrrolidin-3-ol]	< 50
NCCC1CCN(c2ccc3c(c2)Cn2cc(-c4ccc(F)cc4)cc2-c2nccn2-3)C1 (stereo not shown) [Compound 486, 2-(1-(12-(4-fluorophenyl)-9H-benzo[e]imidazo[2,1-c]pyrrolo[1,2-a][1,4]diazepin-7-yl)pyrrolidin-3-yl)ethanamine]	< 50
Fc1ccc(-c2cc3n(c2)Cc2cc(N4CCC5(CC4)CNC5)ccc2-n2nnnc2-3)cc1 [Compound 402, 12-(4-fluorophenyl)-7-(2,7-diazaspiro[3.5]nonan-7-yl)-9H-benzo[e]pyrrolo[1,2-a]tetrazolo[5,1-c][1,4]diazepine]	< 50
CN(C)[C@H]1CN(c2ccc3c(n2)Cn2cc(-c4ccc(C#N)cc4)cc2-c2nccn2-3)C[C@H]1O [Compound 302, 4-(7-((3S,4R)-3-(dimethylamino)-4-hydroxypyrrolidin-1-yl)-9H-imidazo[2,1-c]pyrido[3,2-e]pyrrolo[1,2-a][1,4]diazepin-12-yl)benzonitrile]	50 to 100
